{
  "source": "patent US8092833B2",
  "about": "“Compositions containing inclusion complexes” (California Institute of Technology, priority 2000, dated 2012)",
  "key": {"HUH-7 cells": {"test_system": "HUH-7 cells", "test": "FITC-Oligo uptake by HUH-7 cells after post-complexation pegylation, FACS (Example 41)", "assay_type": "cell-based", "details": "3+/− charge ratio, 1:1 PEG to cyclodextrin, 15 minute incubation", "method": "Step 1: Transfection mixtures were prepared as follows: An equal volume of cationic, 12 was added to 3 μg of FITC-Oligos (0.1 μg/μL in water) at a 3+/−charge ratio of polymer to DNA. To the complexes was added free PEG or Ad-PEG5000 (as prepared in Example 40) at a 1:1 PEG to cyclodextrin ratio.\nStep 2. HUH-7 cells were plated at 3×10^5 cells/well in 6 well plates and maintained in 4 mLs of DMEM+10% FBS+Antibiotic/Antimycotic for 24 hours. After 24 hours, the cells were washed with PBS and 1 mL of Optimem containing the transfection mixtures of Step 1 was added to the cells. After a 15 minute incubation, the transfection media was removed, the cells were washed with PBS and 1 mL of Optimem was added to each well. The cells were incubated for another 30 minutes at 37° C. The cells were then washed with Cell Scrub Buffer (Gene Therapy Systems) to remove surface-associated complexes and PBS and then detached from the wells by trypsin treatment. The cells were then prepared and analyzed by FACS analysis for FITC-Oligo uptake. The modification of the complexes by Ad-PEG5000 decreases uptake of the FITC-Oligo/polymer complexes."}, "[1]": {"test": "Zeta potential of Tf-modified polyplexes (Example 58)", "assay_type": "physicochemical", "details": "12/DNA 3+/−", "method": "An equivolume aliquot of 12 was added to an aliquot of plasmid DNA ([…], 0.1 mg/mL in water) at a 3+/−charge ratio to form the particulate composite. Holo-transferrin or holo-Tf-PEG-Ad (17 mg/mL in water) was then added to the particulate composite. The particles were diluted by the addition of 1.2 mL of water and zeta potential determined by measurements on a ZetaPals dynamic light scattering instrument (Brookhaven Instruments). The unmodified holo-transferrin associates with the particulate composites by electrostatic interactions. […] The holo-Transferrin-PEG-Ad (designated Tf-PEG-Ad in FIG. 25) is likely to associate to the particulate composites by both electrostatic and inclusion compound interactions. Therefore, there is a higher association of holo-Tf-PEG-Ad with the particles, as evidenced by the continued decrease in zeta potential of the modified particles with higher concentrations of holo-Tf-PEG-Ad. At 2 nmol Tf/μg, particulate composites modified with holo-Tf-PEG-Ad are negatively charged (zeta potential ˜−7 mV)."}, "HepG2 cells": {"test_system": "HepG2 cells", "test": "Galactose-mediated luciferase transfection of HepG2 hepatoma cells (Example 49)", "assay_type": "cell-based", "details": "for transfection of HepG2 cells: 12/pCMV-Luc, 2 CD:1 PEG", "method": "HepG2 cells were plated in 24-well plates at 50,000 cells/well. 1 μg of pCMV-Luc was contacted with an equal volume of 12 and modified as indicated below. Modification with PEG-containing complexing agents was done at a 2:1 CD:PEG ratio, where CD represents the cyclodextrins in 12.\n200 μL of Optimem was added to each transfection mixture and transferred to each well of cells. 4 hours after transfection, 800 μL of complete media was added to each well. The media was removed, cells washed with PBS, and 1 mL of complete media added to each well 24 hours after transfection. 48 hours after transfection cells were washed with PBS, lysed and analyzed for luciferase activity. The described transfection procedure was also executed in the presence of 1 mM glucose or 1 mM galactose as a competitive inhibitor."}, "BHK-21 cells": {"test_system": "BHK-21 cells", "test": "Toxicity of GALA / GALA-Ad compositions by total protein of cell lysates (Example 35)", "assay_type": "cell-based", "details": "peptide added to 12/pGL-CV3 5+/−, 48 hours after transfection", "method": "The toxicity of GALA and GALA-Ad modified compositions was determined by measuring the protein concentrations of the cell lysates obtained in the transfection experiments. BHK-21 cells were transfected with 1 μg of pGL-CV3 complexed with 12 at 5+/−charge ratio. Prior to transfection, various ratios of GALA and GALA-Ad were added to the complexes. Cell survival for transfections in the presence of GALA (solid bars) and GALA-Ad (white bars) was determined by assaying for total protein concentrations 48 hours after transfection and normalizing each sample with protein levels for untransfected cells. The protein concentrations are reported as the mean±SD of three replicates were averaged and divided by the average protein concentration of cells transfected with 12/pGL-CV3 compositions alone and reported as fraction cell survival (FIG. 7)."}, "[2]": {"test": "Zeta potential of particulate composites modified with PEG-peptide-Ad agents (Example 49)", "assay_type": "physicochemical", "details": "12/pCMV-Luc, 2 CD:1 PEG"}},
  "note": "Where a SMILES comes first, the peptide text is derived from it. The star is where a group is joined. Adamantane1carbonyl = O=C(C12CC3CC(CC(C3)C1)C2)*; {FITC} = fluorescein (FITC) label; Ad = adamantane",
  "data": [
    {"molecule": "5′-FITC-ACT GCT TAC CAG GGA TTTCAG TGC A-3′ (DNA ACTGCTTACCAGGGATTTCAGTGCA; DNA, 5' {FITC}, backbone and methylation of C not given here) [FITC-Oligo]", "values": [
      {"measurement": "Percent Transfected", "setting": "HUH-7 cells", "value": 0, "unit": "%"}
    ]},
    {"molecule": "holo-transferrin: iron-loaded unmodified transferrin", "values": [
      {"measurement": "particle charge", "setting": "[1]; 2 nmol Tf/μg DNA", "value": "approach neutrality"}
    ]},
    {"molecule": "Tf-PEG-Ad: human transferrin coupled via lysine groups to Vinylsulfone-PEG3400-Ad", "values": [
      {"measurement": "zeta potential", "setting": "[1]; 2 nmol Tf/μg", "value": "~−7", "unit": "mV"}
    ]},
    {"molecule": "Glucose-PEG3400-CAEAEAEAE-Ad [Glu-PEG-Pep-Ad]", "values": [
      {"measurement": "transfection of HepG2 cells", "setting": "HepG2 cells", "value": "do not readily transfect cells"}
    ]},
    {"molecule": "CC(C)C[C@H](NC(=O)[C@H](C)NC(=O)[C@H](CCC(=O)O)NC(=O)[C@H](CC(C)C)NC(=O)[C@H](C)NC(=O)[C@H](CCC(=O)O)NC(=O)[C@H](C)NC(=O)[C@H](CC(C)C)NC(=O)[C@H](C)NC(=O)[C@H](CCC(=O)O)NC(=O)[C@H](C)NC(=O)[C@H](CC(C)C)NC(=O)[C@H](Cc1c[nH]cn1)NC(=O)[C@H](CCC(=O)O)NC(=O)[C@H](C)NC(=O)[C@H](CC(C)C)NC(=O)[C@H](C)NC(=O)[C@H](CCC(=O)O)NC(=O)[C@H](C)NC(=O)[C@H](CC(C)C)NC(=O)[C@H](C)NC(=O)[C@H](CCC(=O)O)NC(=O)[C@H](C)NC(=O)[C@H](CC(C)C)NC(=O)[C@H](C)NC(=O)[C@H](C)NC(=O)[C@H](CCC(=O)O)NC(=O)[C@H](Cc1c[nH]c2ccccc12)NC(=O)C12CC3CC(CC(C3)C1)C2)C(=O)N[C@@H](C)C(=O)N[C@@H](C)C(=O)O", "note": "[GALA-Ad] (Adamantane1carbonyl-WEAALAEALAEALAEHLAEALAEALEALAA-OH)", "values": [
      {"measurement": "toxicity to BHK-21 cells (fraction cell survival)", "setting": "BHK-21 cells", "value": "no observable toxicity"}
    ]},
    {"molecule": "Galactose-PEG3400-CAEAEAEAE-Ad [Gal-PEG-Pep-Ad]", "values": [
      {"measurement": "transfection in the presence of free galactose", "setting": "HepG2 cells; 1 mM galactose as competitive inhibitor", "value": "inhibited"},
      {"measurement": "transfection of HepG2 cells", "setting": "HepG2 cells", "value": "enhanced transfection"}
    ]},
    {"molecule": "PEG5000-CAEAEAEAE-Ad [PEG-Pep-Ad]", "values": [
      {"measurement": "transfection of HepG2 cells", "setting": "HepG2 cells", "value": "do not readily transfect cells"},
      {"measurement": "zeta potential (sign)", "setting": "[2]", "value": "negative"}
    ]},
    {"molecule": "CC(C)C[C@H](NC(=O)[C@H](C)NC(=O)[C@H](CCC(=O)O)NC(=O)[C@H](CC(C)C)NC(=O)[C@H](C)NC(=O)[C@H](CCC(=O)O)NC(=O)[C@H](C)NC(=O)[C@H](CC(C)C)NC(=O)[C@H](C)NC(=O)[C@H](CCC(=O)O)NC(=O)[C@H](C)NC(=O)[C@H](CC(C)C)NC(=O)[C@H](Cc1c[nH]cn1)NC(=O)[C@H](CCC(=O)O)NC(=O)[C@H](C)NC(=O)[C@H](CC(C)C)NC(=O)[C@H](C)NC(=O)[C@H](CCC(=O)O)NC(=O)[C@H](C)NC(=O)[C@H](CC(C)C)NC(=O)[C@H](C)NC(=O)[C@H](CCC(=O)O)NC(=O)[C@H](C)NC(=O)[C@H](CC(C)C)NC(=O)[C@H](C)NC(=O)[C@H](C)NC(=O)[C@H](CCC(=O)O)NC(=O)[C@@H](N)Cc1c[nH]c2ccccc12)C(=O)N[C@@H](C)C(=O)N[C@@H](C)C(=O)O", "note": "[GALA, WEAALAEALAEALAEHLAEALAEALEALAA, reference compound] (H-WEAALAEALAEALAEHLAEALAEALEALAA-OH)", "values": [
      {"measurement": "toxicity to BHK-21 cells (fraction cell survival)", "setting": "BHK-21 cells", "value": "no observable toxicity"}
    ]}
  ]
}
